Source: ChEMBL document CHEMBL1142000, “(R)-2-(4-Phenylbutyl)dihydrobenzofuran derivatives as melatoninergic agents” (Bioorg Med Chem Lett, 2005)

What follows are compounds tested against T1, Melatonin receptor type 1B (Homo sapiens, UniProt P49286) (assay: Binding affinity against Melatonin receptor type 1B stably expressed in NIH3T3 cells using 2-[125I]iodomelatonin).
T1 sequence (P49286 whole entry): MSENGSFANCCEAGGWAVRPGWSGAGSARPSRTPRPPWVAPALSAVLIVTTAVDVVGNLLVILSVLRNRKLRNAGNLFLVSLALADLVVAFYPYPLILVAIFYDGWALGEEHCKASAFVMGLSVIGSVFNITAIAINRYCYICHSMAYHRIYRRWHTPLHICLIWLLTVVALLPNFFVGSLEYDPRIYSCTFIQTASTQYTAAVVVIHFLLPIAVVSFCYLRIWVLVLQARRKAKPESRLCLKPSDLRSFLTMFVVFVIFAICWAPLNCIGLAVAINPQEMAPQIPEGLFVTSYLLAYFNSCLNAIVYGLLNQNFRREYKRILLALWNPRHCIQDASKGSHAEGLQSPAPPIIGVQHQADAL
Type: cell-based

Compared with `CCCC(=O)NCCCc1cccc2c1C[C@@H](CCCCc1ccccc1)O2`, `CCC(=O)NCCCc1cccc2c1C[C@@H](CCCCc1ccccc1)O2` is 1.5-fold lower in Ki: 30 nM for the first, 20 nM for the second. The second binds more tightly here.

`CC(=O)NC[C@@H]1C[C@H]1c1cccc2c1C[C@@H](CCCCc1ccccc1)O2` and `CCC(=O)NC[C@@H]1C[C@H]1c1cccc2c1C[C@@H](CCCCc1ccccc1)O2` are the same in Ki: 2 nM for the first, 2 nM for the second.

Compared with `CC(=O)NCCCc1cccc2c1C[C@@H](CCCCc1ccccc1)O2`, `CC(C)C(=O)NCCCc1cccc2c1C[C@@H](CCCCc1ccccc1)O2` is 5-fold higher in Ki: 8 nM for the first, 40 nM for the second. The first binds more tightly here.

First: CC(C)C(=O)NC[C@@H]1C[C@H]1c1cccc2c1C[C@@H](CCCCc1ccccc1)O2
Second: CCNC(=O)NC[C@@H]1C[C@H]1c1cccc2c1C[C@@H](CCCCc1ccccc1)O2
The Ki of the first is 2.2-fold higher: 90 nM for the first, 40 nM for the second. The second binds more tightly here.

Compared with `CCCC(=O)NC[C@@H]1C[C@H]1c1cccc2c1C[C@@H](CCCCc1ccccc1)O2`, `O=C(NC[C@@H]1C[C@H]1c1cccc2c1C[C@@H](CCCCc1ccccc1)O2)C1CC1` is 2.5-fold higher in Ki: 2 nM for the first, 5 nM for the second. The first binds more tightly here.

`O=C(NCCCc1cccc2c1C[C@@H](CCCCc1ccccc1)O2)C1CC1` and `CCNC(=O)NCCCc1cccc2c1C[C@@H](CCCCc1ccccc1)O2` are within 1.5-fold of each other in Ki: 30 nM for the first, 40 nM for the second.

Work on `CCNC(=O)NC[C@@H]1C[C@H]1c1c(Cl)ccc2c1C[C@@H](CCCCc1ccccc1)O2` yielded a Ki of 90 nM.

The compounds below were run against Melatonin receptor type 1A (Homo sapiens, UniProt P48039) (assay: Binding affinity against Melatonin receptor type 1A stably expressed in NIH3T3 cells using 2-[125I]iodomelatonin).
Type: cell-based

Chain of Melatonin receptor type 1A (P48039 whole entry): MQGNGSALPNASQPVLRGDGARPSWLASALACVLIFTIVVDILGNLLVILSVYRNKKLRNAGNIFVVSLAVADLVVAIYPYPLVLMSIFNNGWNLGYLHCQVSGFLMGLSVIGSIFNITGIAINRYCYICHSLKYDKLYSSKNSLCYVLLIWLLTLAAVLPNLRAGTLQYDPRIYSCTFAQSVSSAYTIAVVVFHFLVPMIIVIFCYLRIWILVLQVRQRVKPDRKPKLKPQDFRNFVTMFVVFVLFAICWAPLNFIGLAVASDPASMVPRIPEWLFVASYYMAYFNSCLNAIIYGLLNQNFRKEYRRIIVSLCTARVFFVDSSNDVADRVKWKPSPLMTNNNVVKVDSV

Compared with `CCCC(=O)NCCCc1cccc2c1C[C@@H](CCCCc1ccccc1)O2`, `CCC(=O)NCCCc1cccc2c1C[C@@H](CCCCc1ccccc1)O2` is 2-fold lower in Ki: 2 nM for the first, 1 nM for the second. The second binds more tightly here.

`CC(=O)NC[C@@H]1C[C@H]1c1cccc2c1C[C@@H](CCCCc1ccccc1)O2` and `CCC(=O)NC[C@@H]1C[C@H]1c1cccc2c1C[C@@H](CCCCc1ccccc1)O2` are the same in Ki: 1 nM for the first, 1 nM for the second.

`CC(=O)NCCCc1cccc2c1C[C@@H](CCCCc1ccccc1)O2` and `CC(C)C(=O)NCCCc1cccc2c1C[C@@H](CCCCc1ccccc1)O2` are the same in Ki: 4 nM for the first, 4 nM for the second.

Going from `CC(C)C(=O)NC[C@@H]1C[C@H]1c1cccc2c1C[C@@H](CCCCc1ccccc1)O2` to `CCNC(=O)NC[C@@H]1C[C@H]1c1cccc2c1C[C@@H](CCCCc1ccccc1)O2`, the Ki rises from 6 nM to 9 nM (1.5-fold). The first binds more tightly here.

Compared with `CCCC(=O)NC[C@@H]1C[C@H]1c1cccc2c1C[C@@H](CCCCc1ccccc1)O2`, `O=C(NC[C@@H]1C[C@H]1c1cccc2c1C[C@@H](CCCCc1ccccc1)O2)C1CC1` is 2-fold lower in Ki: 2 nM for the first, 1 nM for the second.

Going from `O=C(NCCCc1cccc2c1C[C@@H](CCCCc1ccccc1)O2)C1CC1` to `CCNC(=O)NCCCc1cccc2c1C[C@@H](CCCCc1ccccc1)O2`, the Ki rises from 2 nM to 9 nM (4.5-fold).

Compound `CCNC(=O)NC[C@@H]1C[C@H]1c1c(Cl)ccc2c1C[C@@H](CCCCc1ccccc1)O2` has a Ki of 60 nM.
